molecular target: DNA gyrase (Escherichia coli, UniProt P0AES4+P0AES6); experiment: Inhibition of Escherichia coli DNA gyrase supercoiling using relaxed pNO1 as substrate measured after 30 mins by SybrGOLD staining based fluorescence analysis; format: protein-complex assay

SMILES	IC50 [nM]
Cc1[nH]c(C(=O)N(Cc2ccccc2)c2nc3ccc(NC(=O)C(=O)O)cc3s2)c(Cl)c1Cl	43
CC(=O)Nc1ccc2c(c1)s/c(=N\C(=O)c1[nH]c(C)c(Cl)c1Cl)n2CCc1ccccc1	620
CC(=O)Nc1ccc2c(c1)s/c(=N\C(=O)c1[nH]c(C)c(Cl)c1Cl)n2Cc1ccc(C(=O)O)cc1	600
CC(=O)Nc1ccc2c(c1)s/c(=N\C(=O)c1[nH]c(C)c(Cl)c1Cl)n2Cc1cccc(C(=O)O)c1	100
CC(=O)Nc1ccc2nc(N(Cc3ccccc3)C(=O)c3[nH]c(C)c(Cl)c3Cl)sc2c1	90000
Cc1[nH]c(C(=O)/N=c2\sc3cc(NC(=O)C(=O)O)ccc3n2Cc2ccc(C(=O)O)cc2)c(Cl)c1Cl	320
CC(=O)Nc1ccc2nc(N(Cc3ccc(C(=O)O)cc3)C(=O)c3[nH]c(C)c(Cl)c3Cl)sc2c1	35000
CC(=O)Nc1ccc2c(c1)s/c(=N\C(=O)c1[nH]c(C)c(Cl)c1Cl)n2Cc1ccccc1	5800
Cc1[nH]c(C(=O)N(Cc2ccc(C(=O)O)cc2)c2nc3ccc(NC(=O)C(=O)O)cc3s2)c(Cl)c1Cl	1000
CC(=O)Nc1ccc2nc(N(Cc3cccc(C(=O)O)c3)C(=O)c3[nH]c(C)c(Cl)c3Cl)sc2c1	54000
CC(=O)Nc1ccc2nc(N(CCc3ccccc3)C(=O)c3[nH]c(C)c(Cl)c3Cl)sc2c1	162000
Cc1[nH]c(C(=O)N(Cc2cccc(C(=O)O)c2)c2nc3ccc(NC(=O)C(=O)O)cc3s2)c(Cl)c1Cl	2800
Cc1[nH]c(C(=O)/N=c2\sc3cc(NC(=O)C(=O)O)ccc3n2Cc2ccccc2)c(Cl)c1Cl	18
Cc1[nH]c(C(=O)/N=c2\sc3cc(NC(=O)C(=O)O)ccc3n2CCc2ccccc2)c(Cl)c1Cl	100
Cc1[nH]c(C(=O)/N=c2\sc3cc(NC(=O)C(=O)O)ccc3n2Cc2cccc(C(=O)O)c2)c(Cl)c1Cl	13
Cc1[nH]c(C(=O)N(CCc2ccccc2)c2nc3ccc(NC(=O)C(=O)O)cc3s2)c(Cl)c1Cl	2200

— ChEMBL document CHEMBL5550182, “Exploring the interaction of N-(benzothiazol-2-yl)pyrrolamide DNA gyrase inhibitors with the GyrB ATP-binding site lipophilic floor: A medicinal chemistry and QTAIM study” (Bioorg Med Chem, 2024)
